Data on four compounds can be found in BindingDB's records for doi:10.1021/jm950409c (University of Bari Aldo Moro, 1996).

Each structure is given as a SMILES string. pKi: −log10 of the molar value. A value given as a limit tells only on which side of the number the result lay.

Broadly, the pKi is −log10 of the Ki, conventionally taken in molar units.

Experiment [1] can be described thus: Inhibition of [3H]DTG binding to sigma receptor from guinea pig brain cortex membrane.
The target in experiment [2] is Sigma non-opioid intracellular receptor 1 (Cavia porcellus) (UniProt Q60492). Kind of experiment: Inhibitory activity against sigma receptor isolated from guinea pig brain cortex membrane using [3H]DTG as radioligand.
Chain of Sigma non-opioid intracellular receptor 1 (Cavia porcellus) (Q60492 whole entry, looked up): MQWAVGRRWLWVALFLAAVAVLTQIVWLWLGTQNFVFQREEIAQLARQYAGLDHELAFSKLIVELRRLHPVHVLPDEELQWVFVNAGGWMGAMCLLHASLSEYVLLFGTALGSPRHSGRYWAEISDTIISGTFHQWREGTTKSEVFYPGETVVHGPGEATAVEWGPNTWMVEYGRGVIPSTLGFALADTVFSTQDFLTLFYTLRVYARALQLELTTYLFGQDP
A short description of experiment [3]: Inhibitory activity against 5-hydroxytryptamine 1A receptor isolated from rat hippocampus membranes membrane using [3H]5-HT as radioligand in the presence of 10e-6 M ketanserin as 5-HT2 blocker.
The nature of experiment [4]: Inhibitory activity against sigma receptor isolated from guinea pig brain cortex membrane using PCP as radioligand at a concentration of 10e-5 M.

In turn, `COc1cccc2c1CCCC2CCCN1CCNCC1` (stereo unspecified) [1-(3-(5-methoxy-1,2,3,4-tetrahydronaphthalen-1-yl)propyl)piperazine] showed a negative-log Ki (pKi) in experiment [1] of under 6.06.
Regarding `COc1cccc2c1CCC=C2CCCN1CCN(Cc2ccccc2)CC1` [1-Benzyl-4-[3-(5-methoxy-3,4-dihydro-naphthalen-1-yl)-propyl]-piperazine], the pKi in experiment [2] is 6.86; in experiment [3], under 5.84.
Regarding `COc1ccc2c(c1)C(CCCN1CCN(C3=NCCCC3)CC1)CCC2` (stereo unspecified) [1-[3-(7-Methoxy-1,2,3,4-tetrahydro-naphthalen-1-yl)-propyl]-4-(3,4,5,6-tetrahydro-pyridin-2-yl)-piperazine], in experiment [1], the negative logarithm of the Ki (pKi) was 7.54.
Take `COc1cccc2c1CCCC2CCCNCCNc1ccccc1` (stereo unspecified) [N-[3-(5-Methoxy-1,2,3,4-tetrahydro-naphthalen-1-yl)-propyl]-N'-phenyl-ethane-1,2-diamine]: the pKi in experiment [1] was 6.58; in experiment [4], 5.67.
